# Results from PMC10620772, “Design, synthesis, and biological evaluation of new pyrimidine-5-carbonitrile derivatives as novel anti-cancer, dual EGFR^WT/COX-2 inhibitors with docking studies” (RSC Advances, 2023).
# Tests used:
# Type in all cases: cell-based, human
# A549/ATCC = experiment: NCI60 antitumor screening; conditions: 10 μM one-dose
# K-562 = experiment: NCI60 antitumor screening; conditions: 10 μM one-dose
# ACHN = experiment: NCI60 antitumor screening; conditions: 10 μM one-dose
# TK-10 = experiment: NCI60 antitumor screening; conditions: 10 μM one-dose
# SR = experiment: NCI60 antitumor screening; conditions: 10 μM one-dose, Table 1
# SF-268 = experiment: NCI60 antitumor screening; conditions: 10 μM one-dose
# BT-549 = experiment: NCI60 antitumor screening; conditions: 10 μM one-dose
# EKVX = experiment: NCI60 antitumor screening; conditions: 10 μM one-dose
# SF-539 = experiment: NCI60 antitumor screening; conditions: 10 μM one-dose, Table 1
# KM12 = experiment: NCI60 antitumor screening; conditions: 10 μM one-dose
# SK-OV-3 = experiment: NCI60 antitumor screening; conditions: 10 μM one-dose
# OVCAR-4 = experiment: NCI60 antitumor screening; conditions: 10 μM one-dose
# HOP-62 = experiment: NCI60 antitumor screening; conditions: 10 μM one-dose
# CCRF-CEM = experiment: NCI60 antitumor screening; conditions: 10 μM one-dose
# UACC-62 = experiment: NCI60 antitumor screening; conditions: 10 μM one-dose
# NCI-H460 = experiment: NCI60 antitumor screening; conditions: 10 μM one-dose
# MDA-MB-231/ATCC = experiment: NCI60 antitumor screening; conditions: 10 μM one-dose
# NCI-H23 = experiment: NCI60 antitumor screening; conditions: 10 μM one-dose
# NCI-H522 = experiment: NCI60 antitumor screening; conditions: 10 μM one-dose
# LOX IMVI = experiment: NCI60 antitumor screening; conditions: 10 μM one-dose
# NCI/ADR-RES = experiment: NCI60 antitumor screening; conditions: 10 μM one-dose
# 786–0 = experiment: NCI60 antitumor screening; conditions: 10 μM one-dose
# MOLT-4 = experiment: NCI60 antitumor screening; conditions: 10 μM one-dose
# HCC-2998 = experiment: NCI60 antitumor screening; conditions: 10 μM one-dose
# SNB-19 = experiment: NCI60 antitumor screening; conditions: 10 μM one-dose
# SK-MEL-5 = experiment: NCI60 antitumor screening; conditions: 10 μM one-dose
# T-47D = experiment: NCI60 antitumor screening; conditions: 10 μM one-dose
# SN12C = experiment: NCI60 antitumor screening; conditions: 10 μM one-dose
# PC-3 = experiment: NCI60 antitumor screening; conditions: 10 μM one-dose
# OVCAR-5 = experiment: NCI60 antitumor screening; conditions: 10 μM one-dose
# COLO 205 = experiment: NCI60 antitumor screening; conditions: 10 μM one-dose
# HT29 = experiment: NCI60 antitumor screening; conditions: 10 μM one-dose
# DU-145 = experiment: NCI60 antitumor screening; conditions: 10 μM one-dose
# SW-620 = experiment: NCI60 antitumor screening; conditions: 10 μM one-dose
# UO-31 = experiment: NCI60 antitumor screening; conditions: 10 μM one-dose
# NCI60 cell lines panel = experiment: NCI60 antitumor screening, full panel; conditions: 10 μM one-dose, mean over NCI60
# How it was run: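 Single-concentration screen at 10 μM across the NCI60 panel (leukaemia, NSCLC, colon, CNS, melanoma, ovarian, renal, prostate, breast). Results are expressed as percent growth inhibition (GI%) of treated lines.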
# MALME-3M = experiment: NCI60 antitumor screening; conditions: 10 μM one-dose
# NCI-H226 = experiment: NCI60 antitumor screening; conditions: 10 μM one-dose, Table 1
# CAKI-1 = experiment: NCI60 antitumor screening; conditions: 10 μM one-dose
# SK-MEL-2 = experiment: NCI60 antitumor screening; conditions: 10 μM one-dose
# U251 = experiment: NCI60 antitumor screening; conditions: 10 μM one-dose
# MCF7 = experiment: NCI60 antitumor screening; conditions: 10 μM one-dose
# RXF 393 = experiment: NCI60 antitumor screening; conditions: 10 μM one-dose, Table 1
# M14 = experiment: NCI60 antitumor screening; conditions: 10 μM one-dose
# OVCAR-8 = experiment: NCI60 antitumor screening; conditions: 10 μM one-dose
# HS 578T = experiment: NCI60 antitumor screening; conditions: 10 μM one-dose, Table 1
# UACC-257 = experiment: NCI60 antitumor screening; conditions: 10 μM one-dose
# SK-MEL-28 = experiment: NCI60 antitumor screening; conditions: 10 μM one-dose
# HCT-15 = experiment: NCI60 antitumor screening; conditions: 10 μM one-dose
# NCI-H322M = experiment: NCI60 antitumor screening; conditions: 10 μM one-dose
# HL-60(TB) = experiment: NCI60 antitumor screening; conditions: 10 μM one-dose
# RPMI-8226 = experiment: NCI60 antitumor screening; conditions: 10 μM one-dose
# A498 = experiment: NCI60 antitumor screening; conditions: 10 μM one-dose
# SF-295 = experiment: NCI60 antitumor screening; conditions: 10 μM one-dose
# MDA-MB-468 = experiment: NCI60 antitumor screening; conditions: 10 μM one-dose
# SNB-75 = experiment: NCI60 antitumor screening; conditions: 10 μM one-dose, Table 1
# HOP-92 = experiment: NCI60 antitumor screening; conditions: 10 μM one-dose
# MDA-MB-435 = experiment: NCI60 antitumor screening; conditions: 10 μM one-dose
# IGROV1 = experiment: NCI60 antitumor screening; conditions: 10 μM one-dose
# OVCAR-3 = experiment: NCI60 antitumor screening; conditions: 10 μM one-dose
# HCT-116 = experiment: NCI60 antitumor screening; conditions: 10 μM one-dose
structure (smiles),measurement,setting,value
"N#Cc1c(-c2ccc(F)cc2)nc(SCc2ccc([N+](=O)[O-])cc2)nc1N1CCOCC1 [4c, 4-(4-Fluorophenyl)-6-morpholino-2-((4-nitrobenzyl)thio) pyrimidine-5-carbonitrile]",GI%,A549/ATCC,36.61%
same,GI%,K-562,23.12%
same,GI%,K-562; Table 1,— (GI value > 70%)
same,GI%,ACHN,48.98%
same,GI%,TK-10,15.83%
same,GI%,SR,— (GI value > 70%)
same,GI%,SF-268,50.66%
same,GI%,BT-549,41.46%
same,GI%,EKVX,60.74%
same,GI%,SF-539,73.77%
same,GI%,KM12,15.07%
same,GI%,SK-OV-3,55.46%
same,GI%,OVCAR-4,42.76%
same,GI%,OVCAR-4; Table 1,— (GI value > 70%)
same,GI%,HOP-62,65.34%
same,GI%,HOP-62; Table 1,— (GI value > 70%)
same,GI%,CCRF-CEM,22.80%
same,GI%,UACC-62,37.29%
same,GI%,NCI-H460,22.56%
same,GI%,MDA-MB-231/ATCC,52.93%
same,GI%,NCI-H23,25.17%
same,GI%,NCI-H522,58.72%
same,GI%,LOX IMVI,15.29%
same,GI%,NCI/ADR-RES,58.37%
same,GI%,786–0,69.78%
same,GI%,786–0; Table 1,— (GI value > 70%)
same,GI%,MOLT-4,26.34%
same,GI%,HCC-2998,— (GI% < 10)
same,GI%,SNB-19,53.96%
same,GI%,SK-MEL-5,38.14%
same,GI%,T-47D,44.55%
same,GI%,SN12C,25.44%
same,GI%,PC-3,40.85%
same,GI%,OVCAR-5,— (GI% < 10)
same,GI%,COLO 205,— (GI% < 10)
same,GI%,HT29,13.41%
same,GI%,DU-145,26.65%
same,GI%,SW-620,19.46%
same,GI%,UO-31,49.11%
same,Mean GI%,NCI60 cell lines panel,39.54%
same,GI%,MALME-3M,57.24%
same,GI%,NCI-H226,76.22%
same,GI%,CAKI-1,64.15%
same,GI%,SK-MEL-2,12.63%
same,GI%,U251,44.68%
same,GI%,MCF7,41.49%
same,GI%,RXF 393,90.21%
same,GI%,M14,12.25%
same,GI%,OVCAR-8,46.89%
same,GI%,HS 578T,84.42%
same,GI%,UACC-257,45.85%
same,GI%,SK-MEL-28,17.90%
same,GI%,HCT-15,27.19%
same,GI%,NCI-H322M,17.30%
same,GI%,HL-60(TB),17.28%
same,GI%,RPMI-8226,19.73%
same,GI%,A498,35.57%
same,GI%,SF-295,58.52%
same,GI%,MDA-MB-468,49.44%
same,GI%,SNB-75,92.38%
same,GI%,HOP-92,63.28%
same,GI%,MDA-MB-435,16.03%
same,GI%,IGROV1,19.45%
same,GI%,OVCAR-3,30.28%
same,GI%,HCT-116,35.64%
